Some test systems named below: ACHN renal; CAKI-1 renal; HCT-116 colon; HS 578T breast; IGROV1 ovarian; MALME-3M melanoma; MDA-MB-231 breast; NCI-H460 lung; NCI-H522 lung; OVCAR-3 ovarian; SF-268 CNS; SF-539 CNS; SK-MEL-28 melanoma; SW-620 colon; T-47D breast; TK-10 renal; U251 CNS; NCI-H226 lung; HOP-92 NSCLC.
Holding throughout (assay): NCI tumour cell line growth inhibition, 48 h

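These data come from cells grown in 96-well plates and exposed to compound for 48 hours at five concentrations. Definition used: TGI = concentration required for complete inhibition of growth.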 A value given as a limit tells only on which side of the number the result lay.

Turning to `CCOC(=O)Cc1c(C(=O)OCC)[n+](=O)c2cc(Cl)c(Cl)cc2n1[O-]`, the TGI in the test on ACHN renal was 3.38 µM; in the test with CAKI-1 renal, 11.1 µM; with HCT-116 colon it was 7.27 µM; with HS 578T breast, 6.46 µM; in the test on IGROV1 ovarian it was 2.35 µM; in the test with MALME-3M melanoma, 3.21 µM. The TGI came out at 7.02 µM in the test on MDA-MB-231 breast; 3.46 µM with NCI-H460 lung; 3.63 µM in the test on NCI-H522 lung; 5.04 µM in the test with OVCAR-3 ovarian; 7.87 µM with SF-268 CNS; 5.44 µM with SF-539 CNS. In addition, the TGI in the test on SK-MEL-28 melanoma is 17.4 µM; in the test on SW-620 colon it was 4.08 µM; with T-47D breast, 6.76 µM; in the test on TK-10 renal, 2.83 µM; in the test on U251 CNS, 9.67 µM.

With `O/N=C\c1c2c(cc3c1CCC3)CCC2`, the TGI in the test on ACHN renal, in the test with CAKI-1 renal, in the test on HCT-116 colon, in the test with HS 578T breast, in the test on IGROV1 ovarian and in the test on MALME-3M melanoma was more than 100 µM throughout. Further, the TGI in the test with MDA-MB-231 breast, in the test on NCI-H226 lung, in the test with NCI-H460 lung, with NCI-H522 lung, in the test on OVCAR-3 ovarian and in the test on SF-268 CNS was more than 100 µM throughout. Further, the TGI in the test with SF-539 CNS, in the test on SK-MEL-28 melanoma, in the test with SW-620 colon, with T-47D breast, in the test on TK-10 renal and with U251 CNS was more than 100 µM throughout.

As for `CCOC(=O)[C@@]12C[C@](/C=C/OC)(O[Si](C)(C)C)[C@@]13c1cc(OC)c(OC)cc1CCN3C(=O)C2=O`, the TGI in the test with ACHN renal, in the test with CAKI-1 renal, with HCT-116 colon, in the test on HOP-92 NSCLC, in the test with HS 578T breast and in the test on IGROV1 ovarian was more than 100 µM throughout. In addition, the TGI with MALME-3M melanoma, with MDA-MB-231 breast, in the test with NCI-H226 lung, with NCI-H460 lung, in the test on OVCAR-3 ovarian and with SF-268 CNS was more than 100 µM each time. The TGI with SF-539 CNS, in the test with SK-MEL-28 melanoma, in the test with SW-620 colon, with T-47D breast, in the test with TK-10 renal and with U251 CNS was more than 100 µM each time.

On to `CCOC(=O)C(C)c1nc2cc(F)c(F)cc2[nH]c1=O` (centres undefined), for which the TGI in the test on ACHN renal, with CAKI-1 renal, in the test with HCT-116 colon, in the test with HOP-92 NSCLC, in the test with HS 578T breast and with MALME-3M melanoma was more than 100 µM each time. In addition, the TGI with MDA-MB-231 breast, in the test on NCI-H226 lung, in the test with NCI-H460 lung, in the test on OVCAR-3 ovarian, in the test on SF-268 CNS and with SF-539 CNS was more than 100 µM throughout. Moreover, the TGI in the test with SK-MEL-28 melanoma, in the test with SW-620 colon, in the test on T-47D breast, in the test on TK-10 renal and with U251 CNS was more than 100 µM each time.

Turning to `CSc1c(C(C)=O)c(O)n(-c2ccc(C)cc2)c(=O)c1C#N`, the TGI with CAKI-1 renal, in the test on HCT-116 colon, with HS 578T breast, with IGROV1 ovarian, with MALME-3M melanoma and with MDA-MB-231 breast was more than 100 µM throughout. In addition, the TGI with NCI-H226 lung, in the test with NCI-H460 lung, with NCI-H522 lung, in the test on OVCAR-3 ovarian, with SF-268 CNS and in the test with SF-539 CNS was more than 100 µM each time. The TGI in the test on SK-MEL-28 melanoma, in the test with SW-620 colon, in the test on T-47D breast, with TK-10 renal and in the test with U251 CNS was more than 100 µM throughout.

As for `COc1ccc(OC)c2c(C(C)=O)cccc12`, the TGI in the test with ACHN renal, in the test on HCT-116 colon, in the test on HS 578T breast, with IGROV1 ovarian, in the test on MALME-3M melanoma and in the test with MDA-MB-231 breast was more than 100 µM in each case. Besides, the TGI in the test with NCI-H226 lung, with NCI-H460 lung, in the test with NCI-H522 lung, in the test with OVCAR-3 ovarian, with SF-268 CNS and with SF-539 CNS was more than 100 µM in each case. Moreover, the TGI with SK-MEL-28 melanoma, in the test on SW-620 colon, in the test with T-47D breast, in the test with TK-10 renal and in the test on U251 CNS was more than 100 µM each time.

`O=C(/C=C/c1ccc(-c2ccccc2)cc1)NCc1ccc(C(=O)NCCc2ccccc2)cc1`: the TGI in the test on ACHN renal, in the test with CAKI-1 renal, in the test on HCT-116 colon, with HOP-92 NSCLC, in the test on IGROV1 ovarian and with MALME-3M melanoma was more than 100 µM throughout. For the same molecule, the TGI in the test on MDA-MB-231 breast, in the test with NCI-H226 lung, in the test with NCI-H460 lung, in the test on NCI-H522 lung, in the test on OVCAR-3 ovarian and in the test with SF-268 CNS was more than 100 µM each time. In addition, the TGI in the test on SF-539 CNS is 38.1 µM; in the test on SK-MEL-28 melanoma, more than 100 µM; in the test on SW-620 colon it was more than 100 µM; with T-47D breast it was more than 100 µM; in the test on TK-10 renal it was more than 100 µM; in the test with U251 CNS it was more than 100 µM.

As for `COC(=O)/C=C(C)/C=C\COC1CCCCO1` (centres undefined), the TGI in the test with ACHN renal, in the test with CAKI-1 renal, in the test with HCT-116 colon, in the test with HS 578T breast, in the test with IGROV1 ovarian and in the test with MALME-3M melanoma was more than 100 µM in each case. In addition, the TGI in the test on MDA-MB-231 breast, in the test on NCI-H226 lung, in the test on NCI-H460 lung, in the test on NCI-H522 lung, in the test with OVCAR-3 ovarian and with SF-268 CNS was more than 100 µM each time. The TGI in the test with SK-MEL-28 melanoma, in the test on SW-620 colon, in the test with T-47D breast, in the test on TK-10 renal and with U251 CNS was more than 100 µM each time.

The values above are taken from PubChem BioAssay (NCI).
